# Values joined by “and” are separate entries in the source; they are usually repeats but may differ in a detail not shown here. Identical values can stand only once.
# Columns and labels:
# [1] = tested on: Acinetobacter baumannii ATCC 17978
# Procedure, shortened: (§1)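 Broth microdilution in Mueller–Hinton broth, run in triplicate, inoculum 5 × 10^5 CFU/mL per CLSI M07-A10; MIC and MBC both determined. Peptides dissolved in DMSO at 25 mg/mL as stock.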
# [2] = tested on: Bacillus subtilis ATCC 6633; settings: MHB, 5 × 10^5 CFU/mL, 18 h, 35 °C, triplicate
# Procedure, shortened: as §1
# [3] = tested on: Enterococcus faecalis ATCC 29212; settings: MHB, 5 × 10^5 CFU/mL, 18 h, 35 °C, triplicate
# Procedure, shortened: as §1
# [4] = tested on: Escherichia coli CCUGT; settings: MHB, 5 × 10^5 CFU/mL, 18 h, 35 °C, triplicate
# Procedure, shortened: as §1
# [5] = tested on: Klebsiella pneumoniae ATCC 13833; settings: MHB, 5 × 10^5 CFU/mL, 18 h, 35 °C, triplicate
# Procedure, shortened: as §1
# [6] = tested on: Pseudomonas aeruginosa ATCC 27853; settings: MHB, 5 × 10^5 CFU/mL, 18 h, 35 °C, triplicate
# Procedure, shortened: as §1
# [7] = tested on: Staphylococcus aureus ATCC 25923; settings: MHB, 5 × 10^5 CFU/mL, 18 h, 35 °C, triplicate
# Procedure, shortened: as §1
# [8] = tested on: Streptococcus pyogenes ATCC 12344; settings: MHB, 5 × 10^5 CFU/mL, 18 h, 35 °C, triplicate
# Procedure, shortened: as §1
# [9] = tested on: reference Gram-positive and Gram-negative strains; settings: lowest value over the eight reference strains
# Procedure, shortened: as §1
# [10] = tested on: A. baumannii SI-12 (OXA-23); settings: MHB, 5 × 10^5 CFU/mL, 18 h, 35 °C, triplicate
# Procedure, shortened: (§2)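 Peptides came from DMSO stocks of 25 mg/mL. Strains were clinical MDR isolates producing metallo-β-lactamase (P. aeruginosa) or class D carbapenemase (A. baumannii).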
# [11] = tested on: A. baumannii SI-310 (OXA-24); settings: colistin-resistant isolate; MHB, 5 × 10^5 CFU/mL, 18 h, 35 °C, triplicate
# Procedure, shortened: as §2
# [12] = tested on: A. baumannii SI-648 (OXA-23, OXA-51-like); settings: MHB, 5 × 10^5 CFU/mL, 18 h, 35 °C, triplicate
# Procedure, shortened: as §2
# [13] = tested on: P. aeruginosa 101/1477 (IMP-1); settings: MHB, 5 × 10^5 CFU/mL, 18 h, 35 °C, triplicate
# Procedure, shortened: as §2
# [14] = tested on: P. aeruginosa 506/99 (VIM-2); settings: MHB, 5 × 10^5 CFU/mL, 18 h, 35 °C, triplicate
# Procedure, shortened: as §2
# [15] = tested on: P. aeruginosa VA-182/00 (VIM-2); settings: MHB, 5 × 10^5 CFU/mL, 18 h, 35 °C, triplicate
# Procedure, shortened: as §2
# [16] = tested on: P. aeruginosa VR-143/97 (VIM-1); settings: MHB, 5 × 10^5 CFU/mL, 18 h, 35 °C, triplicate
# Procedure, shortened: as §2
# [17] = tested on: S. aureus ATCC 43300 (MRSA); settings: MHB, 5 × 10^5 CFU/mL, 18 h, 35 °C, triplicate
# [18] = tested on: blood agar plate (Columbia CNA Agar); test: Hemolysis on blood agar plate; settings: 50 μg spotted on blood agar, 35 ± 2 °C, 24 h
# Procedure, shortened: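 Peptides (50 μg, from 25 mg/mL DMSO solution) spotted on Columbia CNA blood agar, incubated at 35 ± 2 °C for 24 h. Hemolysis zone diameter measured visually, averaged over triplicates. Triton X-100 positive, DMSO negative control.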
# [19] = MHB, 5 × 10^5 CFU/mL, 18 h, 35 °C, triplicate
compound,measurement,setting,value
"CCCCCCCC(=O)NC(C)(C)C(=O)NCC(=O)N[C@@H](CC(C)C)C(=O)NC(C)(C)C(=O)N[C@@H](CCCCN)C(=O)N[C@@H](CCCCN)C(=O)N[C@@H](CC(C)C)C(=O)NC(C)(C)C(=O)NCC(=O)N[C@H](C(=O)N[C@H](CO)CC(C)C)[C@@H](C)CC [Peptide 4, 1-Oct-Aib-Gly-Leu-Aib-Lys-Lys-Leu-Aib-Gly-Ile-Lol]",MBC Aba,[1]; [19],2 µg/mL
same,MIC Aba,[1]; [19],2 µg/mL
same,"MIC against A. baumannii, in molar units",[1]; corresponding to 2 and 8 μg/mL,1.8 to 7.2 µM
same,MIC Bsu,[2],2 µg/mL
same,MBC Efa,[3],8 µg/mL and 4 µg/mL
same,MIC Efa,[3],2 µg/mL
same,MBC Eco,[4],> 16 µg/mL
same,MIC Eco,[4],16 µg/mL
same,MBC Kpn,[5],32 µg/mL
same,MIC Kpn,[5],16 µg/mL
same,MBC Pae,[6],16 µg/mL
same,MIC Pae,[6],8 µg/mL
same,MBC Sau,[7],16 µg/mL
same,MIC Sau,[7],16 µg/mL
same,MBC Spy,[8],2 µg/mL
same,MIC Spy,[8],2 µg/mL
same,lowest MIC,[9],2 µg/mL
same,MBC A. baumannii SI-12 (OXA-23),[10],4 µg/mL
same,MIC A. baumannii SI-12 (OXA-23),[10],2 µg/mL
same,MBC A. baumannii SI-310 (OXA-24),[11],8 µg/mL
same,MIC A. baumannii SI-310 (OXA-24),[11],4 µg/mL
same,"MBC A. baumannii SI-648 (OXA-23, OXA-51-like)",[12],4 µg/mL
same,"MIC A. baumannii SI-648 (OXA-23, OXA-51-like)",[12],4 μg/mL and 4/4 μg/mL
same,MBC P. aeruginosa 101/1477 (IMP-1),[13],16 µg/mL
same,MIC P. aeruginosa 101/1477 (IMP-1),[13],8 µg/mL
same,MBC P. aeruginosa 506/99 (VIM-2),[14],16 µg/mL
same,MIC P. aeruginosa 506/99 (VIM-2),[14],16 µg/mL
same,MBC P. aeruginosa VA-182/00 (VIM-2),[15],32 µg/mL
same,MIC P. aeruginosa VA-182/00 (VIM-2),[15],16 µg/mL
same,MBC P. aeruginosa VR-143/97 (VIM-1),[16],32 µg/mL
same,MIC P. aeruginosa VR-143/97 (VIM-1),[16],16 µg/mL
same,MBC S. aureus ATCC 43300 (MRSA),[17],8 µg/mL
same,MIC S. aureus ATCC 43300 (MRSA),[17],4 µg/mL
same,Hemolytic activity (in words),[18],non-hemolytic

# Source: paper PMC10178204, “Peptaibol Analogs Show Potent Antibacterial Activity against Multidrug Resistant Opportunistic Pathogens” (International Journal of Molecular Sciences, 2023)
